Laboratory results published in patent US20240252464A1, “A SELF-EMULSIFYING DRUG DELIVERY FORMULATION WITH IMPROVED ORAL BIOAVAILABILITY OF LIPOPHILIC COMPOUND” (Avantsar Sdn Bhd, priority 2022, published 2024).

Conditions: rat, in vivo
Experimental: Non self-emulsifying tocotrienol oily suspension was prepared by mixing tocotrienols rich fraction (TRF) and palm olein at a ratio of 1:1. The total tocotrienol administered per rat was equivalent to 10 mg/kg body weight. The single dose of ketoconazole (suspension in water) was administered at a dose of 32 mg/kg body weight.
The rats were fasted overnight for at least 12 hours before the study. During Phase 1, the rats in Group 1 were given only the tocotrienol oily suspension while Group 2 were given a single dose of ketoconazole half an hour prior to administration of tocotrienol. Phase 2 was carried out after 1 week of wash-out period. Blood samples were taken from the tail vein according to the following predetermined sampling interval. The blood levels of individual tocotrienol isomers at each time point was analysed using HPLC assay.

SMILES: CC(=O)N1CCN(c2ccc(OCC3COC(Cn4ccnc4)(c4ccc(Cl)cc4Cl)O3)cc2)CC1 (stereo not shown) [Ketoconazole, ketoconazole]
- Increase in bioavailability compared with Control, Alpha-tocotrienol: 2.1-fold
- Increase in bioavailability compared with Control, Delta-tocotrienol: 2.6-fold
- Increase in bioavailability compared with Control, Gamma-tocotrienol: 3.0-fold
- Enhancement of bioavailability of tocotrienols compared to without ketoconazole (po): 2-3 folds
